Data published in patent US12161745B2, “Peptides and compositions for use in cosmetics” (LIPOTRUE, S.L., priority 2019, dated 2024).
Where a SMILES comes first, the peptide text is derived from it. The star is where a group is joined. Palmitoyl = CCCCCCCCCCCCCCCC(=O)*

Columns and labels:
Type in all cases: cell-based
[1] = system: human organotypical skin explant cultures (hOSECs); experiment: LDH cytotoxicity assay in human organotypical skin explant cultures
Procedure: (§1) In this case healthy and aged human organotypical skin explant cultures (hOSECs) were used as experimental systems.
(§2) The aged hOSEC was obtained by exposition of the healthy hOSEC to hydrocortisone (5 μg/mL) for the first five days of the study.
The total number of treatment groups was as follows: • 1. Control group (negative control): Untreated hOSEC. • 2. Aged hOSEC: hOSECs treated with hydrocortisone at 5 μg/mL (Abraham A, Roga G. (2014) Topical steroid-damaged skin. Indian J Dermatol. 59(5), 456-9.) • 3. Aged hOSEC+Product A (cream, this is, placebo): hOSECs treated with hydrocortisone at 5 μg/mL and incubated with product A (10 μL). • 4. […]
The LDH Cytotoxicity test is a colorimetric assay that quantitatively measures lactate dehydrogenase (LDH), a stable cytosolic enzyme that is released into the culture medium supernatant upon damage of the cytoplasmic membrane. The released LDH in culture medium supernatants is measured for 30 minutes coupled enzymatic reaction: LDH oxidizes lactate to pyruvate which then reacts with the tetrazolium salt WST-1 to form formazan. The increase in the amount of formazan measured in the culture supernatant directly correlates to the increase in the number of lysed cells (damage) in the skin explant. […]
The results of this assay were calculated considering the negative control, this is, untreated hOSEC as 100% of the LDH normal concentration.

[2] = system: HDFa (Human Dermal Fibroblasts, adult) cells; experiment: MTT viability assay (cytotoxicity) in HDFa cells; conditions: 0.001-0.01 mg/mL, 24 h, vs basal state
Procedure: (§3) The cytotoxicity of peptide Pal-SEQ ID NO: 1-NH2 was analysed by means of viability assay in HEKa (Human Epidermal Keratinocytes, adult) and HDFa (Human Dermal Fibroblasts, adult) cells.
(§4) Cytotoxicity was assessed by means of the MTT assay. Briefly HEKa and HDFa cells were seeded in 96-well plates at a concentration of 1×10^5 cells/mL and incubated in Epilife Medium supplemented with 1% (v/v) EDGS and 1% (v/v) of Penicillin/Streptomycin (for HEKa cells) and Medium 106 supplemented with 2% (v/v) of Low Serum Growth Supplement (LSGS) (for HDFa cells) for 24 h at 37° C., 5% CO2 and saturated humidity. Cells were then treated with different concentrations of peptide Pal-SEQ ID NO: 1-NH2 (0.001 mg/mL, 0.005 mg/mL, 0.01 mg/mL, 0.05 mg/mL, and 0.1 mg/mL for HEKa cells; and 0.001 mg/mL, 0.005 mg/mL and 0.01 mg/mL for HDFa cells) in triplicates, for MTT evaluation. […] The plates were placed on a shaker for 5 minutes for complete solubilisation of the crystals and then the absorbance at 450 nm of each well was determined using the microplate reader Multiskan FC, which is directly proportional to the number of living cells in culture. Absorbance values were normalized using the data obtained for non-treated cells (basal state).

[3] = system: HEKa (Human Epidermal Keratinocytes, adult) cells; experiment: MTT viability assay (cytotoxicity) in HEKa cells; conditions: 0.001-0.1 mg/mL, 24 h, vs basal state
Procedure: as §3, §4

[4] = system: human organotypical skin explant cultures (hOSECs); experiment: Resazurin assay in human organotypical skin explant cultures; conditions: 5 μg/mL
Procedure: as §1, §2
The total number of treatment groups was as follows: • 1. Control group (negative control): Untreated hOSEC. • 2. Aged hOSEC: hOSECs treated with hydrocortisone at 5 μg/mL (Abraham A, Roga G. (2014) Topical steroid-damaged skin. Indian J Dermatol. 59(5), 456-9.) • 3. Aged hOSEC+Product A (cream, this is, placebo): hOSECs treated with hydrocortisone at 5 μg/mL and incubated with product A (10 μL). • 4. Aged hOSEC+Product B (cream with Pal-SEQ ID NO: 1-NH2 at a concentration of 0.005 mg/mL): hOSECs treated with hydrocortisone at 5 μg/mL and incubated with Product B (10 μL).
The total duration of the assay was of 10 days (days 1 to 10). Hydrocortisone was applied in the appropriate or corresponding groups each day on days 1 to 5. […]
For the resazurin assay, the skin explants were treated with 6 μM of resazurin in NaCl solution for 1 hour. […] The resorufin formed was quantified in a fluorometer plate reader.
The fluorescent signal was monitored using 530-560 nm excitation wavelength and 590 nm emission wavelength.
The results of the resazurin assay were calculated considering the negative control, untreated healthy hOSECs, as 100% viability. […]

| reduction of Resorufin percentage with respect to the Control group [4] | SMILES | toxicity deduced from LDH cytotoxicity assay and resazurin assay ([1]; cream with 0.005 mg/mL peptide on aged hOSEC) | viability of HDFa cells [2] | viability of HEKa cells [3] | adverse effect in hOSECs (LDH, plasma membrane damage) ([1]; hydrocortisone 5 μg/mL, days 1 to 5) |
| --- | --- | --- | --- | --- | --- |
| – | CCCCCCCCCCCCCCCC(=O)N[C@@H](Cc1c[nH]cn1)C(=O)N[C@@H](Cc1ccc(O)cc1)C(=O)N[C@@H](CCCNC(=N)N)C(=O)N[C@@H](C)C(N)=O [Pal-SEQ ID NO: 1-NH2, Pal-His-Tyr-Arg-Ala-NH2] (Palmitoyl-HYRA-NH2) | not toxic | did not alter viability | did not alter viability | – |
| 10% | C[C@]12CCC(=O)C=C1CC[C@@H]1[C@@H]2[C@@H](O)C[C@@]2(C)[C@H]1CC[C@]2(O)C(=O)CO [hydrocortisone, reference compound] | – | – | – | did not produce any adverse effect |
